Data as given in US8871715B2, “Use of selenium compounds, especially selenium yeasts for altering cognitive function” (Alltech, Inc., priority 2005, dated 2014).
Marks after values point to notes of the source that are not given here.

Tests used:
Assay type in all cases: in vivo, mouse (male C57BL/6J)
[1] = system: gene expression in the mouse intestine; assay: Gene expression in mouse intestine (microarray) with dietary selenium vs selenium deficient diet; details: diet 1 ppm Se for 100 days vs selenium deficient diet
From the text: (§1) Animal Care. Male C57BL/6J mice were housed singly and started on the experimental diets described below immediately after weaning (21 days of age). The mice were maintained in the Shared Aging Rodent Facility at the William S. Middleton Memorial Veterans Administration Medical Center (Madison, Wis.). Temperature and humidity were maintained at constant levels. Room light was controlled to provide 12-hr cycles of light and dark.
(§2) Experimental diets were created by Harlan Teklad (Madison, Wis.). Selenium content of the diets was determined by Covance Inc. (Madison, Wis.). Five (5) animals were included in each of the following treatment groups: a diet deficient in selenium (SD); a diet supplemented with selenomethionine (SM, obtained from Sigma, St. Louis, Mo.) such that the final selenium content of the diet was one (1) part per million; a diet supplemented with sodium selenite (SS, Sigma) such that the final concentration of selenium in this diet was one (1) part per million; or a diet supplemented with the yeast selenium SEL-PLEX (SP, Alltech, Lexington, Ky.), such that the final concentration of selenium in this diet was one (1) part per million. SEL-PLEX. Mice were provided with water and their respective diet ad libitum for 100 days. Diets were stored at the dark at 4° C. and fresh diet was added to feeder twice weekly.
(§3) Tissue sample preparation and microarray analysis. Mice were killed at 100 days of age by cervical dislocation. For intestinal expression studies, the intestine was flushed twice with saline solution and small intestine was measured and divided in three equal segments. A 3-cm region of the middle segment of the small intestine corresponding to the jejunum (˜300 mg of tissue) was cut and rinsed again with physiological saline to completely remove contents, flash frozen in liquid nitrogen and stored at −80° C. For brain (e.g., cerebral cortex) studies, the cerebral cortex was separated from the surrounding brain tissue and was flash frozen in liquid nitrogen and stored at −80° C.
(§4) Total RNA was isolated from using the guanidinium isothiocyanate method of TRIZOL (Life Technologies, Grand Island, N.Y.) and individual samples were used for gene expression profiles. Total RNA was cleaned up by RNeasy Mini kit (Qiagen, Valencia, Calif.). Target RNA was prepared by converting […] total RNA into double-strand cDNA using GeneChip Expression 3′-Amplification Reagents One-Cycle cDNA Synthesis Kit (Affymetrix, Santa Clara, Calif.) with a T7-(dT)24 primer incorporating a T7 RNA polymerase promoter. After cleaning up double-strand cDNA using Genechip Sample Cleanup Module (Affymetrix, Santa Clara, Calif.), biotin-labeled cRNA was synthesized from double-strand cDNA using GeneChip Expression 3′-Amplification Reagents for IVT Labeling (Affymetrix, Santa Clara, Calif.). The biotin-labeled cRNA was cleaned up using Genechip Sample Cleanup Module and was fragmented by heating (35 min at 94° C.).
(§5) Fifteen (15) μg of cRNA fragments were hybridized (16 h at 45° C.) to Mouse Genome 430 2.0 Array (Affymetrix, Santa Clara, Calif.) using GeneChip Hybridization Oven 640. After hybridization, the gene chips were automatically washed and stained with streptavidin-phycoerythrin biotinylated anti-streptavidin using Affymetrix GeneChip Fluidics Station 450. The DNA chips were scanned with Affymetrix GeneChip Scanner 3000 (Affymetrix, Santa Clara, Calif.) to detect the cell signal intensities by laser. All calculations were performed with Affymetrix GeneChip Operating Software (GCOS) version 1.3 after scanning.
(§6) • 1. The spreadsheet containing probe set identifiers and signal intensity values was opened in Microsoft Excel (version 11.1.1 for the Macintosh OS-X operating system) and summary statistics were generated (mean signal intensity for each treatment group, standard error of the mean). Two-tailed t-tests (equal variance) were performed for the following treatment groups: SM vs. SD, SS vs. SD, and SP vs. SD. […]

[2] = system: brain (cerebral cortex) gene expression; assay: Gene expression in mouse brain (cerebral cortex, microarray) with dietary selenium vs selenium deficient diet; details: diet 1 ppm Se for 100 days vs selenium deficient diet
From the text: as §1, §2, §3, §4, §5, §6

[3] = Body weight of mice on selenium diets
From the text: as §1
Experimental diets were created by Harlan Teklad (Madison, Wis.). Selenium content of the diets was determined by Covance Inc. (Madison, Wis.). […]
Thus, it was an object of the present invention to determine whether compositions and methods of the present invention could alter the expression levels (e.g., mRNA levels) of various genes. One group of genes analyzed were genes classically associated with selenium. As described above, the expression levels of genes were analyzed between mice with and without dietary selenium, or, between mice fed different sources of selenium) (See, e.g., Table 1, below).

Q: With `O=[Se](O)O` [Sod-sel, sodium selenite] as the molecule, how does the “Cu chaperone for SOD (CCS) expression, fold enhancement” value [1] read?
A: Its value is 1.28 fold.

Q: What about the “Glutathione Peroxidase 1 gene expression, fold change (FC)” value [1] of the same molecule?
A: The value was 4.1 fold.

Q: And the “Glutathione Peroxidase 3 gene expression, fold change (FC)” value [1]?
A: Its value is 3.5 fold.

Q: What about the “Glutathione S-transferase, alpha 3 (Gsta3) expression, FC” value [1] of the same molecule?
A: Its value is −2.3 fold.

Q: And the “Glutathione S-transferase, mu 1 (Gstm1) expression, FC” value [1]?
A: Its value is −2.4 fold.

Q: And the “Glutathione S-transferase, mu 2 (Gstm2) expression, FC” value [1]?
A: The value was −2.1 fold.

Q: What about the “Glutathione S-transferase, mu 3 (Gstm3) expression, FC” value [1] of the same molecule?
A: Its value is −2.7 fold.

Q: What about the “Glutathione S-transferase, theta 2 (Gstt2) expression, FC” value [1] of the same molecule?
A: The value was −1.3 fold.

Q: And the “Growth arrest and DNA-damage-inducible 45 gamma (Gadd45g) expression, FC” value [1]?
A: The value was −2.0 fold.

Q: And the “SOD1 expression, fold enhancement” value [1]?
A: Its value is 1.92 fold.

Q: And the “SelR (Selenoprotein X1) gene expression, fold upregulation” value [1]?
A: The value was 1.3 fold.

Q: What about the “Selenoprotein W (SelW) expression, fold upregulation” value [1] of the same molecule?
A: The value was 5.1 fold.

Q: And the “Thioredoxin Reductase 1 gene expression, fold increase” value [1]?
A: Its value is 1.7 fold.

Q: What about the “Type 1 iodothyronine deiodinase expression level, fold increase” value [1] of the same molecule?
A: The value was 2.8 fold.

Q: And the “Gadd45b expression, FC” value ([2]; brain)?
A: Its value is −1.39* fold.

Q: And the “Gadd45g1p (Growth arrest and DNA-damage inducible 45 gamma interacting protein) expression, FC” value ([2]; brain)?
A: Its value is −1.12 fold.

Q: And the “Gst mu 7 (Gstm7) expression, FC” value ([2]; brain)?
A: The value was −1.25* fold.

Q: And the “Gst pi 1 (Gstp1) expression, FC” value ([2]; brain)?
A: The value was 1.02 fold.

Q: And the “Gst zeta 1 (Gstz1) expression, FC” value ([2]; brain)?
A: The value was −1.3 fold.

Q: And the “Amyloid beta (A4) precursor protein-binding, family A, member 1 (Apba1) expression, FC” value ([2]; cerebral cortex)?
A: Its value is −1.41 fold.

Q: What about the “Amyloid beta (A4) precursor protein-binding, family B, member 1 (Apbb1 or Fe65) expression, FC” value ([2]; cerebral cortex) of the same molecule?
A: The value was −1.32* fold.

Q: What about the “Amyloid beta (A4) precursor-like protein (Aplp 1) expression, FC” value ([2]; cerebral cortex) of the same molecule?
A: Its value is −1.55* fold.

Q: What about the “Cathepsin B expression, FC” value ([2]; cerebral cortex) of the same molecule?
A: Its value is −1.13* fold.

Q: What about the “Cathepsin D expression, FC” value ([2]; cerebral cortex) of the same molecule?
A: The value was −1.24* fold.

Q: And the “Cathepsin O expression, FC” value ([2]; cerebral cortex)?
A: The value was −1.18 fold.

Q: What about the “Cathepsin Z expression, FC” value ([2]; cerebral cortex) of the same molecule?
A: The value was −1.30* fold.

Q: And the “Complement component 1, q subcomponent binding protein, C1qbp expression, FC” value ([2]; cerebral cortex)?
A: The value was 1.11 fold.

Q: And the “Complement component 1, q subcomponent, alpha polypeptide, C1qa expression, FC” value ([2]; cerebral cortex)?
A: Its value is −1.18 fold.

Q: And the “Complement component 1, q subcomponent, beta polypeptide, expression, FC” value ([2]; cerebral cortex)?
A: Its value is −1.35 fold.

Q: And the “Complement component 1, q subcomponent, gamma polypeptide, C1qg expression, FC” value ([2]; cerebral cortex)?
A: Its value is −1.07 fold.

Q: What about the “Complement component 1, r subcomponent, C1r expression, FC” value ([2]; cerebral cortex) of the same molecule?
A: Its value is −1.29 fold.

Q: What about the “Junb expression, FC” value ([2]; cerebral cortex) of the same molecule?
A: Its value is −1.59 fold.

Q: And the “Nicastrin expression, FC” value ([2]; cerebral cortex)?
A: The value was −1.67* fold.

Q: What about the “Presenilin 1 expression, FC” value ([2]; cerebral cortex) of the same molecule?
A: Its value is −1.11 fold.

Q: What about the “body weights of mice” value ([3]; diets with 1 ppm Se vs selenium deficient diet, FIG. 1) of the same molecule?
A: The value was “No significant differences”.

Q: What does the source list for `C[Se]CC[C@H](N)C(=O)O` [SeM, selenomethionine]?
A: Glutathione Peroxidase 1 gene expression, fold change (FC) [1]: 4.9 fold; Glutathione Peroxidase 3 gene expression, fold change (FC) [1]: 4.6 fold; Glyoxalase 1 (Glo1) expression, fold reduction [1]: not significantly affected; Growth arrest and DNA-damage-inducible 45 gamma (Gadd45g) expression, FC [1]: −1.5 fold; LIM homeobox protein 8 gene (Lhx8) expression, fold upregulation [1]: not significantly different; Neurogenin 3 (Neurog3) expression, fold upregulation [1]: no significant alteration; Prohibitin (Phb) expression, fold upregulation [1]: 1.6 fold; SelR (Selenoprotein X1) gene expression, fold upregulation [1]: not significantly affected; Selenoprotein W (SelW) expression, fold upregulation [1]: not significantly altered; Thioredoxin Reductase 1 gene expression, fold increase [1]: 1.8 fold; expression pattern of GST genes (summary in words) [1]: no alteration; selenoprotein N1 (Sepn1) gene expression, fold increase [1]: not significantly affected; sprouty homolog 2 gene (Spry2) expression, fold reduction [1]: no alteration; transforming growth factor beta 2 (TGF-β2) expression, fold upregulation [1]: not altered; type II iodothyronine deiodinase (Dio2) expression, fold down-regulation [1]: no ability to alter; Gadd45g1p expression in intestinal tissue (in words) ([1]; p<0.05): decreased expression; CORS-26 expression, fold reduction ([2]; cerebral cortex): no alteration; Complement component 1, q subcomponent, gamma polypeptide, C1qg expression, FC ([2]; cerebral cortex): 1.0 fold; expression of complement component genes (summary in words) ([2]; cerebral cortex): did not provide a statistically significant alteration; body weights of mice ([3]; mouse, in vivo): No significant differences
